In US20220211614A1, “COMPOSITIONS AND IMPLANTABLE DEVICES” (Commonwealth Scientific and Industrial Research Organisation, priority 2019, published 2022):
Each block holds one compound with its values, some of them ahead of it. No end group written: not given here.

What was measured:
[1] = cited from earlier work
[2] = biological target: relaxin family peptide receptor 1 (RXFP1), stably expressed on human embryonic kidney cells (HEK-RXFP1) (UniProt Q9HBX9); experiment: cell-based or functional assay
[3] = biological target: T1, relaxin family peptide receptor 1 (RXFP1) (Homo sapiens, UniProt Q9HBX9); experiment: HEK-RXFP1 cAMP reporter gene assay; assay type: cell-based
T1 construct: expressed in transfected cells; host or cells: HEK (human embryonic kidney) cells stably expressing RXFP1, with pCRE beta-galactosidase reporter
T1 sequence (Q9HBX9 1-757): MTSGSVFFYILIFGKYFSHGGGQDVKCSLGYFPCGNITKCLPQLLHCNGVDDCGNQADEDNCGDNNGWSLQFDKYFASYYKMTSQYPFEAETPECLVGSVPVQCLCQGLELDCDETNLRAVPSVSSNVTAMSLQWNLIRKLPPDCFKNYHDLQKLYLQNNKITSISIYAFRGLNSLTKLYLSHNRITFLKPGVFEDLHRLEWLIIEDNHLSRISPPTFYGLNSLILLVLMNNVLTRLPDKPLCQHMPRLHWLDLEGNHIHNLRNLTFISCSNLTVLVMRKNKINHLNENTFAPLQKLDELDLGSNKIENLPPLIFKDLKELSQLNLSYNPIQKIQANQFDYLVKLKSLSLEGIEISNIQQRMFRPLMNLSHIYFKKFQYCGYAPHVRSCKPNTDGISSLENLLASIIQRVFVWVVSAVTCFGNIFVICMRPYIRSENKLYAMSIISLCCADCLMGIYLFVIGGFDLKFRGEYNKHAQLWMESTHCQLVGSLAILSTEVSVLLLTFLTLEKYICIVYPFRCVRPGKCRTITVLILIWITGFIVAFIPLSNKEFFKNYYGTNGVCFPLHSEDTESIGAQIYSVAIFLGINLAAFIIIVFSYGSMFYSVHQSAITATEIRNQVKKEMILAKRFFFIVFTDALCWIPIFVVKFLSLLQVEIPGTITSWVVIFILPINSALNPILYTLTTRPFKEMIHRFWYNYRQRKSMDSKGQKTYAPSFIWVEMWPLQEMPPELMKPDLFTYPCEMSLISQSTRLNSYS
Method: HEK-RXFP1 cAMP Reporter Gene Assay
B7-33 activity at RXFP1 was assessed using a cAMP reporter gene assay as previously described (Scott et al. J. Biol. Chem. 2006, 281:34942-3495) with slight modification. PLGA B7-33 well plate coatings, and peptide controls in the absence of PLGA (dried peptide), were compared to solubilized B7-33 solution standards ([…]) and H2 relaxin (10 nM). Wells were seeded (25,000 cells per well, 100 μL) with dispersed HEK-RXFP1-pCRE reporter cells and incubated for 6 hours. Cells were then lysed and the reporter gene stimulated β-galactosidase activity was measured using a colorimetric substrate to evaluate the relative cAMP responses. Ligand-induced cAMP stimulation was expressed as a % of maximal response to H2 relaxin. Each data point was measured in triplicate and each experiment conducted independently at least three separate times.

Compound: CC(C)Oc1ccccc1C(=O)Nc1ccccc1C(=O)Nc1cccc(S(=O)(=O)C(F)(F)F)c1 [ML290]
in vivo half-life [1]: approximately 8 hours

EC50, cAMP reporter gene assay (beta-galactosidase, colorimetric) in HEK-RXFP1 cells; B7-33 peptide solution control [2]: 1000 nM | EC50, cAMP reporter gene assay (beta-galactosidase, colorimetric) in HEK-RXFP1 cells; PLGA-free dried peptide control [2]: 1000 nM
Compound: B7-33 peptide (single B chain peptide analogue of H2 relaxin)

EC50 ([3]; cAMP reporter gene (β-galactosidase), HEK-RXFP1 cells, 6 hours incubation): 1000 nM
Compound: VIKLSGRELVRAQIAISGMSTWSKRSL-NH2 [B7-33]
retained activity against the RXFP1 receptor after drying/oxidation ([3]; HEK-RXFP1 cell assay (FIG. 2), oxidized species of B7-33 observed by MALDI): retains activity against the RXFP1 receptor

Compound: recombinant human relaxin 2
in vivo half-life [1]: 40 min
